Assay results reported in patent US5723449A, “Methods and compositions for inhibiting uridine secretion” (priority 1996, dated 1998).
Where two headings read alike, the source gives them in different places.

Key:
bone marrow cell growth = conditions: cited from earlier work; for limiting toxicity: in vivo
[1] = Administration of dilazep to Rhesus monkeys, plasma uridine levels and toxicity; type: in vivo; conditions: dilazep 1 to 2 mg/kg of body weight per day
Experimental: Uridine secretion can be inhibited by administering compounds of the type noted above by Formula (I) or by administering the uridine competing compounds noted above. Uridine secretion inhibiting compounds of the type denoted by Formula (I) typically are administered at preferred doses in the range of about 1 to 5 mg/kg of body weight 2 to 3 times per day. Uridine competing compounds preferably are administered at doses ranging from 5 to 50 mg/kg of body weight 2 to 3 times per day. […] Moreover, such treatment increases by about 4 to 5-fold, the plasma half-life of uridine. These uridine levels are roughly equivalent to those obtained by administering high doses of uridine (1 to 3 g/m^2 per day), without the toxic side effects associated with uridine administration.

hearts [2] = conditions: hearts of dogs; cited from earlier work
hearts [3] = conditions: hearts of rats; cited from earlier work
heart tissue = heart tissue of rabbits; cited from earlier work
[4] = cited from earlier work
GABA receptor = conditions: cerebellar membranes and brain areas associated with convulsions; cited from earlier work
hearts [5] = conditions: hearts of frogs; cited from earlier work
[6] = system: isolated rat skeletal muscle; conditions: low concentrations of uridine (10^-4 M); cited from earlier work
[7] = system: hereditary orotic aciduria; conditions: human, in vivo; cited from earlier work
[8] = Single subcutaneous dose of uridine with and without dilazep, plasma/urine uridine pharmacokinetics; type: in vivo, rhesus monkeys (Macaca mulatta); conditions: rhesus monkey, sc
Experimental: Single dose of Uridine and effect of Dilazep
The uridine was administered both with and without dilazep. When dilazep was given it was administered at either 1 or 2 mg/kg of body weight, dissolved in sterile phosphate-buffed saline (pH 7.4). Samples of blood (3 ml) were collected in heparinized tubes at 0, 5, 10, 15 and 30 minutes and 1, 2, 4 and 6 hours after injection. When possible, urine was also collected by cytocentesis at similar time intervals. The plasma and urine samples were frozen at -20° C. until analysis.
The proteins were removed by centrifugation, and sample temperature was maintained at 5° C. The supernant was removed and an equivalent amount of a 1:1 mixture of ice cold trioctylamine and 1,1,2-trichlorotrifluoroethane (freon) was added. […] Reversed-phased chromatography was performed using a Hypersil ODS 5 μm column (Jones Chromatography, Littleton, Colo.). Urine samples were filtered through a 0.45 μm pore size Acro LC 13 filter (Gelman Sciences, Ann Arbor, Mich.) to remove proteins and 50 μl aliquots were analyzed by HPLC. Isocratic elution was performed at 1 ml/min with 10 mM phosphoric acid and 10 μM heptane sulfonic acid (pH 3.1). Column temperature was maintained at 25° C., and the absorbance was measured at 254 nm. […] After adding 5 ml of Econo-Safe scintillation fluor (Research Products International Corp., Mount Prospect, Ill.), radioactivity was measured by using Beckman Model LS 5000TA liquid scintillation counter (Beckman Instruments, Inc., Fullerton, Calif.) equipped with an automatic quenching correction program. […] The detection limits were 2.0 μM.
The pharmacokinetic parameters of uridine was estimated by […] model-independent methods using a SIPHAR/Base program. The AUC was determined by the trapeziodal rule with extrapolation to time infinity using the terminal disposition slope (K) generated by a weighted nonlinear least-squares regression of an exponential fit of the data, with the weighted square factor set as the reciprocal of the calculated concentration squared. […] The peak plasma concentration (Cmax) values and time to peak plasma concentration (Tmax) values were observed experimental values. Renal clearance (CLR) of uridine was calculated by dividing the […] by the AUC.

CCl4 damaged rat livers = conditions: cited from earlier work
[9] = cited from earlier work; remark: listed apart in the source
[10] = plasma, uridine parameter, 83.3 mg/kg uridine s.c., no dilazep

Q: Which limiting toxicity (bone marrow cell growth) does the source give for `O=c1[nH]cc(F)c(=O)[nH]1` [5-FU, 5-fluorouracil] here?
A: The limiting toxicity was “myelosuppression”.

Q: Which limiting toxicity (bone marrow cell growth) does the source give for `Cc1cn([C@H]2C[C@H](N=[N+]=[N-])[C@@H](CO)O2)c(=O)[nH]c1=O` [AZT, 3'-azido-3'-deoxythymidine] here?
A: Its limiting toxicity is “myelosuppression”.

Q: Which limiting toxicity (bone marrow cell growth) does the source give for `O=c1[nH]c(=O)n([C@H]2C[C@H](O)[C@@H](CO)O2)cc1F` [FdUrd, 5-fluoro-2'-deoxyuridine] here?
A: Its limiting toxicity is “myelosuppression”.

Q: With `COc1cc(C(=O)OCCCN2CCCN(CCCOC(=O)c3cc(OC)c(OC)c(OC)c3)CC2)cc(OC)c1OC` [dilazep, N,N'-bis[3-(3,4,5-trmethoxybenzoyloxy)propyl] homopiperazine] as the compound, how does the toxicity [1] read?
A: The toxicity was “without apparent toxicity”.

Q: For `O=c1ccn([C@@H]2O[C@H](CO)[C@@H](O)[C@H]2O)c(=O)[nH]1` [uridine], which myocardial contractility (hearts [2]) is on record?
A: Its myocardial contractility is “increase myocardial contractility”.

Q: What about the myocardial contractility (hearts [3]) of the same compound?
A: The myocardial contractility was “increase myocardial contractility”.

Q: And the “myocardial performance, glucose uptake, glycogen synthesis and breakdown of ATP” value (heart tissue)?
A: The value was “increase myocardial performance, glucose uptake, glycogen synthesis and the breakdown of ATP”.

Q: What about the “concentration in blood plasma” value ([4]; endogenous, different species) of the same compound?
A: Its value is 1 to 5 µM.

Q: What about the “plasma uridine entering the liver by the portal vein degraded in single pass” value ([4]; hepatic uridine phosphorylase) of the same compound?
A: The value was “More than 90%”.

Q: What about the “half life in the plasma” value ([4]; in vivo) of the same compound?
A: Its value is “approximately 2 minutes”.

Q: What about the “effect on the GABA receptor” value (GABA receptor) of the same compound?
A: The value was “may have an agonist effect on the receptor”.

Q: What about the myocardial contractility (hearts [5]) of the same compound?
A: The myocardial contractility was “increase myocardial contractility”.

Q: And the “glucose uptake and glycogen synthesis” value [6]?
A: Its value is “increase glucose uptake and glycogen synthesis”.

Q: What about the “protection (and reversal) from myelosuppression of pyrimidine analogues” value (bone marrow cell growth; in vitro and in vivo) of the same compound?
A: The value was “Complete protection (and reversal)”.

Q: And the “management of patients with hereditary orotic aciduria” value [7]?
A: Its value is “effective to manage patients with hereditary orotic aciduria”.

Q: And the Cmax/C0 ([8]; in vivo, 83.3 mg/kg)?
A: The Cmax/C0 was 10.7.

Q: And the CL renal ([8]; in vivo, uridine parameter, 83.3 mg/kg uridine s.c., no dilazep, read-out: ClR (renal clearance of uridine) (converted))?
A: Its CL renal is 1.12 mL/min/kg.

Q: And the AUC [8, 10]?
A: The AUC was 370 µM·h.

Q: What about the Cmax [8, 10] of the same compound?
A: The Cmax was 175 µM.

Q: What about the Tmax [8, 10] of the same compound?
A: Its Tmax is 30 min.

Q: And the “conjugating and excretory functions” value (CCl4 damaged rat livers)?
A: The value was “normalize conjugating and excretory functions”.

Q: And the “urinary excretion of uridine” value ([9]; high doses of uridine (1 to 3 gm/m^2), several times per day)?
A: Its value is 15-40 % of the dose.

Q: And the toxic side effects ([9]; high doses of uridine)?
A: The toxic side effects was “phlebitis, pyrogenic reactions and diarrhea”.
